From the METLIN SMRT retention time set (Domingo-Almenara et al. 2019)

Assay: gradient 5% acetonitrile 3 min, to 50% in 2 min, to 85% in 15 min, held 3 min, 100 µL/min
Settings: column: Zorbax Extend-C18 2.1 x 50 mm; eluents: water / acetonitrile, 0.1% formic acid
In short: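 Values are retention times taken from adduct peaks that software picked and an analyst inspected. The pure standards were run as mixtures of ~100 molecules on HPLC linked to a quadrupole time-of-flight mass spectrometer, in positive and negative ionization mode. A Zorbax Extend-C18 column (2.1 × 50 mm, 1.8 μm) was used at 100 μL/min with water and acetonitrile, each including 0.1% formic acid.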

Structure (SMILES)	RP-LC retention time [s]
Cc1nccn1Cc1nc(-c2ccc(Br)cc2)no1	663
O=C(COc1ccc2c(c1)C(=O)CC2)NCCC1=CCCCC1	827
COc1cccc(-c2nc(C3CCN(C(=O)c4n[nH]c5c4CCCC5)CC3)no2)c1	847
COc1ccc(NC(=O)N2C[C@@H](F)C[C@H]2C(=O)N2CCc3ccccc3C2)c(OC)c1	790
Cn1cccc1C(=O)Nc1cnn(-c2ncc(N3CCCCC3)cn2)c1	819
COc1ccc(-c2csc3c(=O)n(Cc4ccccc4)cnc23)cc1OC	948
COc1cc(-c2ccnc3nc(CCc4ccccc4)nn23)cc(OC)c1OC	856
CCc1ccc(N2C=C(C(=O)N3CCOCC3)S(=O)(=O)c3ccc(F)cc32)cc1	873
NS(=O)(=O)c1ccc2nc(NC(=O)COc3ccc(Cl)cc3)sc2c1	766
CCOC(=O)c1cc(C2CC2)nc2c1c(=O)n(Cc1ccc(F)cc1Cl)c(=O)n2C	855
CC(C)n1cc(C#N)c(N)n1	658
Cc1nccn1Cc1noc(-c2ccccc2)n1	600
O=C(NCCSc1ncc(-c2ccc(F)cc2)[nH]1)c1ccccc1Cl	604
CCCN(C(=O)Nc1ccc(CC)cc1)c1nc(-c2ccc(Br)cc2)cs1	660
CCn1cc2c(n1)c(=O)n(Cc1ccc(F)cc1)c(=O)n2CC(=O)Nc1cc(F)ccc1F	905
O=c1c2scc(-c3ccc(Br)cc3)c2ncn1Cc1cccnc1	775
COc1ccc(-c2cnn(CC(=O)Nc3cc(F)cc(F)c3)c(=O)n2)cc1	872
O=C(NCCOc1ccc(-c2ccccn2)nn1)c1cccs1	586
CC(=O)N1CCc2sc(C(=O)NCc3cccc(Br)c3)cc2C1	768
CC(C)c1noc(C2CCCN(C(=O)NC3CCCCC3)CCC(=O)NCC2)n1 (stereo unspecified)	752
Cc1ccc(NC(=O)C2CC(=O)N(c3n[nH]c4cccc(F)c34)C2)cc1C (stereo unspecified)	831
CCCNC(=O)C1CCCN(c2ccc(SCC(=O)Nc3ccc(C)c(C)c3)nn2)C1 (stereo unspecified)	678
CN1C(=O)[C@H]2CN(Cc3ccc(F)cc3Cl)C[C@H]2C1=O	642

Structure (SMILES)	RP-LC retention time [s]
COc1ccc(C2Cn3nnc(C(=O)NCc4cc(OC)ccc4OC)c3CO2)cc1 (stereo unspecified)	926
COc1ccc(NC(=O)CN2CCc3[nH]c4c(C)cc(F)cc4c(=O)c3C2)c(OC)c1	631
Cc1nc(CNC(=O)c2ccc(-c3noc(C4CC4)n3)cc2)no1	717
CCN1CCN(CCCNC(=O)c2c(N3CCCC3=O)c3cc(F)ccc3n2CC)CC1	602
CCC(C)NC(=O)c1cc(C)[nH]n1 (stereo unspecified)	623
Cc1ccc(NC(=O)Nc2ccc3c(c2)CCN3S(=O)(=O)c2ccccc2)cc1	995
CC(C)CC(=O)Nc1ccc(-n2cnc(C(=O)NC3CCCC3)c2)nc1	772
COc1cc(C(=O)N2CCCC2c2nc(-c3ccccc3Cl)no2)cc(OC)c1OC (stereo unspecified)	906
Cc1ccc(-n2nc(N3CCCN(S(=O)(=O)c4ccccc4)CC3)ccc2=O)cc1C	947
CCC(C(=O)NC(C)C(=O)Nc1nc2ccccc2[nH]1)c1ccccc1 (stereo unspecified)	691
CCCn1nc(CNC(=O)c2cnccn2)c2ccccc21	765
CC(NC(=O)c1cc(-c2ccccc2)cn1C)c1ccccn1 (stereo unspecified)	703
NC(=O)c1cc[nH]c1C1CCCN(C(=O)c2ccc(Cn3cncn3)o2)C1 (stereo unspecified)	560
O=C(O)c1cnc(N2CCCCC2)nc1-c1ccncc1	636
CCOc1ccc(S(=O)(=O)N2CCC[C@@H]2C(=O)NCc2csc(C)n2)cc1	743
Cc1ccc(CNC(=O)N2CCN(c3ncccc3-c3nnc(C4CC4)o3)CC2)cc1	780
Cc1cc(OCCCS(C)(=O)=O)cc(C)c1-c1cccc(COc2ccc3c(c2)OC[C@H]3CC(=O)O)c1	1040
CCOc1cccc(CN2CC[C@@](C)(O)[C@H](N3CCCC3)C2)c1	562
Cc1cccc(NC(=O)C2CCN(C(=O)C3Sc4ccccc4NC3=O)CC2)c1C (stereo unspecified)	753
Cc1sc2ncnc(N3CCCC(C)C3)c2c1C(=O)Nc1ccc(Cl)cc1 (stereo unspecified)	1290
CCCc1ccc(S(=O)(=O)N2CCC(F)(c3nc(CC(C)C)no3)CC2)cc1	1330
CCc1cccc(C)c1Nc1c(-c2cccc(O)c2)nc2cnccn12	750
COc1ccc(C(=O)N2CCC3(CC2)NC(=O)c2ccc(Cl)cc2N3)c(C)c1	800

Structure (SMILES)	RP-LC retention time [s]
CCc1nc(-c2csc(S(=O)(=O)N3CCCC(C(=O)Nc4ccc(OC)cc4)C3)c2)no1 (stereo unspecified)	917
O=C(C1c2ccccc2CCN1C(=O)C1CC1)N1CCN(c2ccccc2F)CC1 (stereo unspecified)	947
CCn1ncc(N2CCC(NC(=O)C(C)(C)C)CC2)cc1=O	576
CCn1cc(C(=O)Nc2ccc(F)c(Cl)c2)c2cccnc21	965
CCn1cc(CC(=O)NC(C)c2ccc(F)cc2)c2cccnc21 (stereo unspecified)	732
CCc1nc(OCC(=O)NCc2cccc(F)c2)c2c(C)c(C)oc2n1	942
Cc1c(C2CCN(C(=O)c3nccc4ccccc34)CC2)noc1N	617
Cc1ccccc1NC(=O)CN1C(=O)C2CCCCN2c2ccc(S(=O)(=O)N(C)C)cc21 (stereo unspecified)	607
CCc1cccc(C)c1NC(=O)Cn1cnc2nc(N3CCC(C(=O)NC4CC4)CC3)sc2c1=O	686
O=C(CSc1nnc2c3sc(N4CCCC4)nc3ncn12)Nc1ccccc1	772
CN1CCOc2ccc(NC(=O)C3CCN(S(C)(=O)=O)CC3)cc2C1=O	590
Cc1ccsc1C(=O)Nc1ccc(N2CCN(Cc3ccccc3)C2=O)nc1	834
COc1cccc(-c2nc(C3CCN(S(=O)(=O)c4ccc(F)cc4)CC3)no2)c1	1100
COC(=O)c1c(NCc2ccc(SC)cc2)c2cccc(Cl)c2[nH]c1=O	853
CN(C)C(=O)C1CCc2sc(C(=O)N3CCOCC3)cc2C1 (stereo unspecified)	614
Cc1cccc(CN2N=C(C(=O)N3CCC(C)CC3)S(=O)(=O)c3ccccc32)c1	1090
CCOc1ccccc1NC(=O)c1sc(N2CCCC2=O)nc1CC	1020
Cc1cc(CN2CCC(CNC(=O)CSc3ccc(F)cc3)CC2)c(C)o1	583
Fc1ccc(-c2nnc(-c3ccc(-n4ccnc4)nc3)o2)cc1	648
CCc1nn(CC(=O)N2CCC(C(N)=O)CC2)c(=O)c2cc3occc3n12	612
COc1ccc(Cl)cc1C(=O)N1CCCN(C2CCN(CC3CC3)C2=O)CC1 (stereo unspecified)	553
Cc1ccccc1CC(=O)N1CCN(c2nc(CN3CCOCC3)cs2)CC1	636
Clc1ccc(-c2nc(-c3ccc4c(c3)ncn4CCN3CCOCC3)no2)cc1	683

Structure (SMILES)	RP-LC retention time [s]
CCCOc1ccc(CNC(=O)c2nc3cccnc3n(CC)c2=O)cc1	918
COc1ccc(NC2=NC(C)(CO)CS2)cc1 (stereo unspecified)	638
Cn1cccc1-c1cc2n(n1)CCC(=O)N2CCCC(=O)NCc1cccc(Cl)c1	804
Cc1ccc(NC(=O)C2CCCN(c3ncnc4c3nc3n4CCCCC3)C2)cc1 (stereo unspecified)	838
COc1ccccc1NC(=O)N1CCCC1c1nc(-c2cccc(Cl)c2)no1 (stereo unspecified)	941
Nc1cc(S(=O)(=O)N2CCCCCC2)ccc1Cl	902
CN(CC(=O)Nc1cccnc1)c1nc2ccccc2s1	568
COc1ccc(-c2nc(C3CC(=O)N(c4ccccc4)C3)no2)cc1 (stereo unspecified)	971
CC(C)CCN1C(=O)CN(S(=O)(=O)c2ccccc2)CC1(C)C(=O)NCc1ccc(F)cc1 (stereo unspecified)	1030
CC1CN(C(=O)CSc2cn(CC(=O)N3CCCCC3)c3ccccc23)CC(C)O1 (stereo unspecified)	812
CC1CCN(c2cncnc2-n2cc(NC(=O)NC3CCCCC3)cn2)CC1	744
Cc1ccc(-c2nc(Nc3ccccc3F)sc2CC(=O)O)cc1	960
COCCCNC(=O)Cn1cccc(-c2nc(-c3ccc(F)cc3)no2)c1=O	702
CC1(C)CC(=O)c2cn(-c3ccccc3)c(=O)c(C(=O)N3CCC(N4CCCCC4)CC3)c2C1	622
Cc1ccc(N2CC(c3nc(-c4ccc5c(c4)ncn5C)no3)CC2=O)cc1 (stereo unspecified)	664
CCOc1ccccc1-c1noc(Cn2c(=O)n(-c3ccc(Cl)cc3)c(=O)c3sccc32)n1	1030
CCC(C)NC(=O)N1CCN(c2cc(-c3cccc(F)c3)ncn2)CC1 (stereo unspecified)	650
CCc1ccccc1NC(=O)C(=O)c1cn(CC(=O)N2CCCC2)c2ccccc12	644
CCC(c1cccs1)N1C(=O)[C@H]2CN(S(=O)(=O)c3cccnc3)C[C@H]2C1=O (stereo partly specified)	824
Cc1cccc(-c2nc(-c3cccc(-c4ccnn4C)c3)no2)c1	1220
CCCSCCCNC(=O)c1cc2n(n1)CCCN(Cc1ccc(C)cc1)C2=O	852
Cc1ccc(NS(=O)(=O)c2c[nH]c3ncccc23)cc1F	761
